Assay results taken from PMC6057649, “Development of NanoLuc-PEST expressing Leishmania mexicana as a new drug discovery tool for axenic- and intramacrophage-based assays” (PLoS Neglected Tropical Diseases, 2018).
Read-outs that look alike come from different tables or passages of the source.

Tests used:
[1] = tested on: HepG2; settings: ref MMV Pathogen Box website, cited from earlier work; for CC50: read-out: HepG2 CC50
[2] = tested on: MRC5; set-up: method as in MMV Pathogen Box website; settings: ref MMV Pathogen Box website; cited from earlier work
[3] = tested on: NanoLuc-PEST expressing L. mexicana axenic amastigotes; assay: microbe, parasite or virus in culture; format: cell-based; settings: for Relative Bioluminescence (%) / viability at 2 µM / viability at 10 µM: 72 hours, relative to DMSO only control, n = 4; for EC90: read-out: EC90 against amastigotes, Axenic; for viability at 2 µM / viability at 10 µM: read-out: Relative Bioluminescence (%)
[4] = tested on: L. mexicana NanoLuc-PEST intramacrophage amastigotes; assay: Bioluminescence-based intramacrophage assay in THP-1 infection model; format: cell-based; settings: for EC50: read-out: EC50 against amastigotes, Intramacrophage; for EC90: read-out: EC90 against amastigotes, Intramacrophage
[5] = tested on: L. donovani axenic amastigotes; settings: cited from earlier work
[6] = tested on: THP-1 cell line; assay: Macrophage toxicity assay (PrestoBlue); settings: read-out: THP1 EC50, PMA-differentiated THP-1 macrophages, 72 hours
[7] = tested on: L. donovani intramacrophage amastigotes; settings: cited from earlier work
[8] = hit compounds from the axenic amastigote screen, S3 Table, read-out: EC50, Axenic Amastigotes
[9] = read-out: EC50 against amastigotes, Axenic
[10] = THP-1 infection model, bioluminescence
[11] = Leishmania mexicana, 2 µM compound
[12] = Leishmania mexicana, 10 µM compound

O=C(Nc1ccc2c(c1)B(O)OC2)c1ccccc1C(F)(F)F [MMV652003]
HepG2 CC20 [1]: 400 nM
CC50 [2]: > 32000 nM
Relative Bioluminescence (%) ([3]; 2 µM compound): -1.53%
Relative Bioluminescence (%) ([3]; 10 µM compound): -1.54%
EC50 [3, 8]: 70 nM
EC50 [3, 9]: 77 nM
EC90 [3]: 104 nM
EC50 [4, 10]: 3640 nM
EC90 [4, 10]: 10700 nM

CCN(CC)S(=O)(=O)c1ccc(C(=O)Nc2cc(C)nn2-c2nc(C)c(C)c(=O)[nH]2)cc1 [MMV595321]
EC50 ([5]; value in brackets ref 49, 53, read-out: Previous EC50, axenic amastigotes): 501 nM
EC50 [6]: > 50000 nM
EC50 ([7]; value in brackets ref 49, 53, read-out: Previous EC50, intramacrophage amastigotes): 3160 nM
Relative Bioluminescence (%) ([3]; 2 µM compound): -4.54%
Relative Bioluminescence (%) ([3]; 10 µM compound): -3.10%
EC50 [3, 8]: 150 nM
EC50 [3, 9]: 153 nM
EC90 [3]: 357 nM
EC50 [4, 10]: 5300 nM
EC90 [4, 10]: 11200 nM

C[C@]1(COc2ccc(N3CCC(Oc4ccc(OC(F)(F)F)cc4)CC3)cc2)Cn2cc([N+](=O)[O-])nc2O1 [MMV688262, Delamanid, reference compound]
EC50 ([5]; value in brackets ref 54, read-out: Previous EC50, axenic amastigotes): 5 nM
CC50 [1]: 72500 nM
EC50 ([7]; value in brackets ref 54, read-out: Previous EC50, intramacrophage amastigotes): 86.5 to 298 nM
viability at 2 µM [3, 11]: -4.37%
viability at 10 µM [3, 12]: -2.71%
EC50 ([3]; Leishmania mexicana, hit compounds from the axenic amastigote screen, S3 Table, read-out: EC50, Axenic Amastigotes): 30 nM
EC50 ([3]; Leishmania mexicana, read-out: EC50 against amastigotes, Axenic): 33 nM
EC90 ([3]; Leishmania mexicana): 112 nM
EC50 ([4]; Leishmania mexicana, THP-1): 1780 nM
EC90 ([4]; Leishmania mexicana, THP-1): 25100 nM

Cc1ccc(NC(=O)c2nc[nH]c2C(=O)Nc2nc3ccccc3[nH]2)c(C)c1 [MMV011903]
EC50 [6]: > 50000 nM
CC50 [1]: > 10000 nM
HepG2 CC20 [1]: 8400 nM
Relative Bioluminescence (%) ([3]; 2 µM compound): -0.43%
Relative Bioluminescence (%) ([3]; 10 µM compound): -1.14%
EC50 [3, 8]: 180 nM
EC50 [3, 9]: 189 nM
EC90 [3]: 320 nM
EC50 [4, 10]: 2020 nM
EC90 [4, 10]: 2290 nM

COc1ccc(Oc2ccc([C@@H](C)N(C)c3ncc4c(N)nc(N)nc4n3)cc2)cc1 [MMV690102]
EC50 ([5]; value in brackets ref 49–51, read-out: Previous EC50, axenic amastigotes): 40 nM
EC50 ([7]; value in brackets ref 49–51, read-out: Previous EC50, intramacrophage amastigotes): 100 nM
CC50 [2]: 5400 nM
Relative Bioluminescence (%) ([3]; 2 µM compound): -5.29%
Relative Bioluminescence (%) ([3]; 10 µM compound): -1.34%
EC50 [3, 9]: 60 nM
EC90 [3]: 123 nM
EC50 [4, 10]: 107 nM
EC90 [4, 10]: 160 nM

O=C(Nc1cccc(Cl)c1)c1cnc(N2CCN(c3ccncc3)CC2)c(Cl)c1 [MMV024406]
Relative Bioluminescence (%) ([3]; 2 µM compound): 85.94%
Relative Bioluminescence (%) ([3]; 10 µM compound): 93.72%

CC(=O)NCC1CN(c2ccc(-c3ccc(CO)cc3)c(F)c2)C(=O)O1 (centres unmarked) [MMV688508]
Relative Bioluminescence (%) ([3]; 2 µM compound): 98.16%
Relative Bioluminescence (%) ([3]; 10 µM compound): 65.29%

COC(=O)c1cccc2oc(-c3cccc(OC)c3NC(=O)c3cc(-c4ccccc4)on3)nc12 [MMV676186]
Relative Bioluminescence (%) ([3]; 2 µM compound): 83.95%
Relative Bioluminescence (%) ([3]; 10 µM compound): 21.54%

Nc1nccc2ccc(Oc3ccncc3)cc12 [MMV026313]
Relative Bioluminescence (%) ([3]; 2 µM compound): 56.90%
Relative Bioluminescence (%) ([3]; 10 µM compound): 66.48%

CCc1ccc([C@@H]2C[C@H](C(F)(F)F)n3ncc(C(=O)NCc4ccc(OC)cc4)c3N2)cc1 [MMV687180]
Relative Bioluminescence (%) ([3]; 2 µM compound): 49.23%
Relative Bioluminescence (%) ([3]; 10 µM compound): 1.44%

CC(C)(C)CN1C(=O)C(c2ccccc2)(c2ccccc2)N=C1N [MMV026550]
Relative Bioluminescence (%) ([3]; 2 µM compound): 91.50%
Relative Bioluminescence (%) ([3]; 10 µM compound): 87.66%

O=C1COCc2ccc(Br)cc2N1Cc1ccc(C(F)(F)F)cc1 [MMV032995]
Relative Bioluminescence (%) ([3]; 2 µM compound): 97.31%
Relative Bioluminescence (%) ([3]; 10 µM compound): 90.22%

CC(C)n1ncc2c(C(=O)NCC(c3cccs3)N3CCOCC3)cc(-c3ccccc3)nc21 (centres unmarked) [MMV676406]
Relative Bioluminescence (%) ([3]; 2 µM compound): 54.35%
Relative Bioluminescence (%) ([3]; 10 µM compound): 35.79%

COc1ccc(CCN2CCC(NCc3cccc(N(C)C)c3)CC2)cc1 [MMV011511]
Relative Bioluminescence (%) ([3]; 2 µM compound): 78.49%
Relative Bioluminescence (%) ([3]; 10 µM compound): 88.55%

COc1cc(C2=NCCN2)cc2cc(-c3ccc(C4=NCCN4)cc3)oc12 [MMV688362]
Relative Bioluminescence (%) ([3]; 2 µM compound): 95.50%
Relative Bioluminescence (%) ([3]; 10 µM compound): 90.68%

COc1cccn2c(C(=O)N3CCCCC3)c(C(F)(F)F)nc12 [MMV1110498]
Relative Bioluminescence (%) ([3]; 2 µM compound): 66.34%
Relative Bioluminescence (%) ([3]; 10 µM compound): 77.35%

COc1ccc(Cn2cnc3c(-c4ccco4)nc(Cl)nc32)cc1 [MMV687170]
Relative Bioluminescence (%) ([3]; 2 µM compound): 107.56%
Relative Bioluminescence (%) ([3]; 10 µM compound): 104.36%

Cc1ccc2cc(C3NC(=O)c4ccccc4N3)c(Cl)nc2c1 (centres unmarked) [MMV019807]
Relative Bioluminescence (%) ([3]; 2 µM compound): 69.92%
Relative Bioluminescence (%) ([3]; 10 µM compound): 111.93%

COc1cc(Br)cc2cc(C(=O)Nc3cccc(C(F)(F)F)c3)c(=O)oc12 [MMV688891]
Relative Bioluminescence (%) ([3]; 2 µM compound): 75.74%
Relative Bioluminescence (%) ([3]; 10 µM compound): 64.36%

Cc1cc(NC(=O)c2ccc(S(=O)(=O)N(Cc3ccccc3)C(C)C)cc2)no1 [MMV007133]
Relative Bioluminescence (%) ([3]; 2 µM compound): 102.77%
Relative Bioluminescence (%) ([3]; 10 µM compound): 71.20%

O=C(NCCN1CCCC1)c1cc(NCCCCN2CCC(F)(F)CC2)nc2ccc(Cl)cc12 [MMV667494]
Relative Bioluminescence (%) ([3]; 2 µM compound): 55.75%
Relative Bioluminescence (%) ([3]; 10 µM compound): 61.89%

Cc1cc(Nc2ccc(C(F)(F)F)cc2)n2ccnc2n1 [MMV011229]
Relative Bioluminescence (%) ([3]; 2 µM compound): 102.18%
Relative Bioluminescence (%) ([3]; 10 µM compound): 84.66%

N#Cc1ccc(-c2cnc(N)c(-c3ccc(C(N)=O)cc3)n2)cc1 [MMV085499]
Relative Bioluminescence (%) ([3]; 2 µM compound): 98.08%
Relative Bioluminescence (%) ([3]; 10 µM compound): 54.27%

COc1ccc(-c2cnc3ccc(N4CCCC4)nn23)cc1OC [MMV023985]
Relative Bioluminescence (%) ([3]; 2 µM compound): 57.95%
Relative Bioluminescence (%) ([3]; 10 µM compound): 46.63%

CS(=O)(=O)N1CCC(CCn2nc(Cc3cccc4ccccc34)c3c(N)ncnc32)CC1 [MMV688470]
Relative Bioluminescence (%) ([3]; 2 µM compound): 96.68%
Relative Bioluminescence (%) ([3]; 10 µM compound): 53.17%

CCCn1c(CNc2ccccc2O)nc2ccccc21 [MMV676445]
Relative Bioluminescence (%) ([3]; 2 µM compound): 79.21%
Relative Bioluminescence (%) ([3]; 10 µM compound): 77.96%

Nc1nccc2ccc(-c3ccc4nccn4c3)cc12 [MMV023233]
Relative Bioluminescence (%) ([3]; 2 µM compound): 106.85%
Relative Bioluminescence (%) ([3]; 10 µM compound): 120.49%

Cc1nc2ccccn2c1C(=O)NCc1ccc(Cl)cc1 [MMV012074]
Relative Bioluminescence (%) ([3]; 2 µM compound): 98.27%
Relative Bioluminescence (%) ([3]; 10 µM compound): 123.86%

CCCCOC(=O)Nc1cc2[nH]c(C3CCCCC3)nc2cc1N1CCCC1 [MMV687730]
Relative Bioluminescence (%) ([3]; 2 µM compound): 85.81%
Relative Bioluminescence (%) ([3]; 10 µM compound): 52.52%

Nc1cccnc1Nc1ccc(Cl)cc1 [MMV676524]
Relative Bioluminescence (%) ([3]; 2 µM compound): 60.00%
Relative Bioluminescence (%) ([3]; 10 µM compound): 65.52%

Cc1ccc(NC(=O)c2cc(S(=O)(=O)NC(C)(C)C)ccc2C)nc1 [MMV020289]
Relative Bioluminescence (%) ([3]; 2 µM compound): 103.50%
Relative Bioluminescence (%) ([3]; 10 µM compound): 71.21%

Cc1cc2nc(NC(=O)C(C)(C)C)nc(Cl)c2n1Cc1ccc(Cl)cc1 [MMV688704]
Relative Bioluminescence (%) ([3]; 2 µM compound): 83.23%
Relative Bioluminescence (%) ([3]; 10 µM compound): 53.57%

CN1CCCN(C(c2ccccc2)c2ccc(Cl)cc2)CC1 (centres unmarked) [MMV004168]
Relative Bioluminescence (%) ([3]; 2 µM compound): 64.14%
Relative Bioluminescence (%) ([3]; 10 µM compound): 52.89%

Cc1ccc(S(=O)(=O)n2cc(-c3ccnc(N)c3)c3cc(Br)cnc32)cc1 [MMV024114]
Relative Bioluminescence (%) ([3]; 2 µM compound): 103.63%
Relative Bioluminescence (%) ([3]; 10 µM compound): 69.99%

CC1COC(Cn2cncn2)(c2ccc(Oc3ccc(Cl)cc3)cc2Cl)O1 (centres unmarked) [MMV688943, Difenoconazol]
Relative Bioluminescence (%) ([3]; 2 µM compound): 26.19%
Relative Bioluminescence (%) ([3]; 10 µM compound): 8.96%

CC(=O)OCC1OC([S-])C(OC(C)=O)C(OC(C)=O)C1OC(C)=O.CCP(CC)CC.[Au+] (centres unmarked) [MMV688978, Auranofin, reference compound]
Relative Bioluminescence (%) ([3]; 2 µM compound): -2.60%
Relative Bioluminescence (%) ([3]; 10 µM compound): -2.20%
EC50 [3, 8]: 170 nM

COc1ccc(C(=N)N)cc1-c1cn(-c2ccc(C(=N)N)cc2)nn1 [MMV675998]
Relative Bioluminescence (%) ([3]; 2 µM compound): 92.81%
Relative Bioluminescence (%) ([3]; 10 µM compound): 65.21%

CCCn1c(NC(=O)c2ccc3ccccc3n2)nc2ccccc21 [MMV1030799]
Relative Bioluminescence (%) ([3]; 2 µM compound): 37.62%
Relative Bioluminescence (%) ([3]; 10 µM compound): -5.56%

CNCCC(Oc1ccc(C(F)(F)F)cc1)c1ccccc1 (centres unmarked) [MMV001561, Fluoxetine, reference compound]
viability at 2 µM [3, 11]: 90.4%
viability at 10 µM [3, 12]: 52.4%

O=C(CCC1CCCCC1)Nc1cccc(-c2nnc(-c3ccco3)o2)c1 [MMV676589]
Relative Bioluminescence (%) ([3]; 2 µM compound): 54.08%
Relative Bioluminescence (%) ([3]; 10 µM compound): 15.64%

Nc1ncc(-c2ccc(C(F)(F)F)nc2)cc1-c1ccc(C(F)(F)F)nc1 [MMV668727]
Relative Bioluminescence (%) ([3]; 2 µM compound): 68.46%
Relative Bioluminescence (%) ([3]; 10 µM compound): 78.89%

O=C(C1CCCCC1)N1CC(=O)N2CCc3ccccc3C2C1 (centres unmarked) [MMV002529, Praziquantel, reference compound]
viability at 2 µM [3, 11]: 64.8%
viability at 10 µM [3, 12]: 93.8%

COc1ccc(-c2cncc3ccc(C(=O)NCCCn4ccnc4)nc23)cc1 [MMV020670]
Relative Bioluminescence (%) ([3]; 2 µM compound): 96.09%
Relative Bioluminescence (%) ([3]; 10 µM compound): 97.66%
